Source: patent US10301308B2, “Azetidine derivatives for tau imaging” (Eli Lilly and Company, priority 2015, dated 2019)

Experiment: Biodistribution in normal mice (dissection, gamma counting)
Type: in vivo
Conditions: for % dose/g Blood / % dose/g Body leftover / % dose/g Bone / % dose/g Brain / % dose/g Fat / % dose/g Heart / % dose/g Intestine / % dose/g Kidney / % dose/g Liver / % dose/g Lung / % dose/g Muscle / % dose/g Pancreas / % dose/g Skin / % dose/g Spleen / % dose/g Stomach / % dose/g Tail / % dose/g Testes / % dose/g Thyroid / % dose/g Urogenital / % dose/organ Blood / % dose/organ Body leftover / % dose/organ Bone / % dose/organ Brain / % dose/organ Fat / % dose/organ Heart / % dose/organ Intestine / % dose/organ Kidney / % dose/organ Liver / % dose/organ Lung / % dose/organ Muscle / % dose/organ Pancreas / % dose/organ Skin / % dose/organ Spleen / % dose/organ Stomach / % dose/organ Tail / % dose/organ Testes / % dose/organ Thyroid / % dose/organ Urogenital: AVG
Experimental: While under anesthesia, 0.2 mL of saline solution containing 20 μCi of 3-(3-[18F]-fluoroazetidin-1-yl)-8-methylbenzo[4,5]imidazo[1,2-a]pyridine is injected directly into the tail vein. Three mice are used per time point and sacrificed in a staggered manner. The following organs and fluids are collected: Blood, Spleen, Thyroid, Testes, Heart, Liver, Pancreas, Kidneys, Muscle, Skin, Stomach, Bone, Lungs, Brain, Intestines, Urogenital system. The organs are weighted and the radioactivity of each organ is counted in an Automatic Gamma Counter (Perkin Elmer). For the skin, bone, muscle and blood, a sample is counted and the total weight of the organ or fluid is estimated. A sample of the injected dose is counted as reference. The Percentage Injected Dose per Gram of tissue (% ID/g) is calculated for each organ.

Cc1ccc2nc3cc(N4CC([18F])C4)ccn3c2c1 [Compound 8, 3-(3-[18F]-fluoroazetidin-1-yl)-8-methylbenzo[4,5]imidazo[1,2-a]pyridine]
% dose/g Blood (2 minutes): 2.52 % dose/g
% dose/g Body leftover (2 minutes): 2.43 % dose/g
% dose/g Bone (2 minutes): 1.89 % dose/g
% dose/g Brain (2 minutes): 9.53 % dose/g
% dose/g Fat (2 minutes): 1.09 % dose/g
% dose/g Heart (2 minutes): 4.79 % dose/g
% dose/g Intestine (2 minutes): 5.77 % dose/g
% dose/g Kidney (2 minutes): 39.08 % dose/g
% dose/g Liver (2 minutes): 7.32 % dose/g
% dose/g Lung (2 minutes): 26.50 % dose/g
% dose/g Muscle (2 minutes): 1.81 % dose/g
% dose/g Pancreas (2 minutes): 8.74 % dose/g
% dose/g Skin (2 minutes): 0.96 % dose/g
% dose/g Spleen (2 minutes): 10.89 % dose/g
% dose/g Stomach (2 minutes): 4.14 % dose/g
% dose/g Tail (2 minutes): 14.93 % dose/g
% dose/g Testes (2 minutes): 1.78 % dose/g
% dose/g Thyroid (2 minutes): 6.01 % dose/g
% dose/g Urogenital (2 minutes): 4.33 % dose/g
% dose/organ Blood (2 minutes): 4.54 % dose/organ
% dose/organ Body leftover (2 minutes): 38.48 % dose/organ
% dose/organ Bone (2 minutes): 6.87 % dose/organ
% dose/organ Brain (2 minutes): 4.42 % dose/organ
% dose/organ Fat (2 minutes): 0.27 % dose/organ
% dose/organ Heart (2 minutes): 0.72 % dose/organ
% dose/organ Intestine (2 minutes): 15.39 % dose/organ
% dose/organ Kidney (2 minutes): 15.93 % dose/organ
% dose/organ Liver (2 minutes): 11.56 % dose/organ
% dose/organ Lung (2 minutes): 5.18 % dose/organ
% dose/organ Muscle (2 minutes): 19.01 % dose/organ
% dose/organ Pancreas (2 minutes): 1.31 % dose/organ
% dose/organ Skin (2 minutes): 3.74 % dose/organ
% dose/organ Spleen (2 minutes): 1.00 % dose/organ
% dose/organ Stomach (2 minutes): 1.52 % dose/organ
% dose/organ Tail (2 minutes): 10.85 % dose/organ
% dose/organ Testes (2 minutes): 0.30 % dose/organ
% dose/organ Thyroid (2 minutes): 0.10 % dose/organ
% dose/organ Urogenital (2 minutes): 0.75 % dose/organ
% dose/g Blood (30 minutes): 1.14 % dose/g
% dose/g Body leftover (30 minutes): 0.71 % dose/g
% dose/g Bone (30 minutes): 0.93 % dose/g
% dose/g Brain (30 minutes): 0.39 % dose/g
% dose/g Fat (30 minutes): 0.63 % dose/g
% dose/g Heart (30 minutes): 0.76 % dose/g
% dose/g Intestine (30 minutes): 10.09 % dose/g
% dose/g Kidney (30 minutes): 5.98 % dose/g
% dose/g Liver (30 minutes): 2.76 % dose/g
% dose/g Lung (30 minutes): 5.11 % dose/g
% dose/g Muscle (30 minutes): 0.46 % dose/g
% dose/g Pancreas (30 minutes): 1.15 % dose/g
% dose/g Skin (30 minutes): 0.55 % dose/g
% dose/g Spleen (30 minutes): 1.98 % dose/g
% dose/g Stomach (30 minutes): 3.10 % dose/g
% dose/g Tail (30 minutes): 2.77 % dose/g
% dose/g Testes (30 minutes): 1.56 % dose/g
% dose/g Thyroid (30 minutes): 0.81 % dose/g
% dose/g Urogenital (30 minutes): 22.15 % dose/g
% dose/organ Blood (30 minutes): 2.03 % dose/organ
% dose/organ Body leftover (30 minutes): 10.62 % dose/organ
% dose/organ Bone (30 minutes): 3.31 % dose/organ
% dose/organ Brain (30 minutes): 0.17 % dose/organ
% dose/organ Fat (30 minutes): 0.21 % dose/organ
% dose/organ Heart (30 minutes): 0.11 % dose/organ
% dose/organ Intestine (30 minutes): 28.28 % dose/organ
% dose/organ Kidney (30 minutes): 2.56 % dose/organ
% dose/organ Liver (30 minutes): 4.22 % dose/organ
% dose/organ Lung (30 minutes): 0.99 % dose/organ
% dose/organ Muscle (30 minutes): 4.68 % dose/organ
% dose/organ Pancreas (30 minutes): 0.15 % dose/organ
% dose/organ Skin (30 minutes): 2.10 % dose/organ
% dose/organ Spleen (30 minutes): 0.19 % dose/organ
% dose/organ Stomach (30 minutes): 1.80 % dose/organ
% dose/organ Tail (30 minutes): 1.93 % dose/organ
% dose/organ Testes (30 minutes): 0.23 % dose/organ
% dose/organ Thyroid (30 minutes): 0.01 % dose/organ
% dose/organ Urogenital (30 minutes): 3.92 % dose/organ
% dose/g Blood (60 minutes): 0.87 % dose/g
% dose/g Body leftover (60 minutes): 0.54 % dose/g
% dose/g Bone (60 minutes): 0.97 % dose/g
% dose/g Brain (60 minutes): 0.26 % dose/g
% dose/g Fat (60 minutes): 0.27 % dose/g
% dose/g Heart (60 minutes): 0.49 % dose/g
% dose/g Intestine (60 minutes): 15.40 % dose/g
% dose/g Kidney (60 minutes): 4.32 % dose/g
% dose/g Liver (60 minutes): 3.10 % dose/g
% dose/g Lung (60 minutes): 4.01 % dose/g
% dose/g Muscle (60 minutes): 0.31 % dose/g
% dose/g Pancreas (60 minutes): 0.60 % dose/g
% dose/g Skin (60 minutes): 0.36 % dose/g
% dose/g Spleen (60 minutes): 1.15 % dose/g
% dose/g Stomach (60 minutes): 2.78 % dose/g
% dose/g Tail (60 minutes): 2.10 % dose/g
% dose/g Testes (60 minutes): 0.88 % dose/g
% dose/g Thyroid (60 minutes): 0.68 % dose/g
% dose/g Urogenital (60 minutes): 13.95 % dose/g
% dose/organ Blood (60 minutes): 1.63 % dose/organ
% dose/organ Body leftover (60 minutes): 8.64 % dose/organ
% dose/organ Bone (60 minutes): 3.62 % dose/organ
% dose/organ Brain (60 minutes): 0.09 % dose/organ
% dose/organ Fat (60 minutes): 0.12 % dose/organ
% dose/organ Heart (60 minutes): 0.08 % dose/organ
% dose/organ Intestine (60 minutes): 32.10 % dose/organ
% dose/organ Kidney (60 minutes): 1.73 % dose/organ
% dose/organ Liver (60 minutes): 4.73 % dose/organ
% dose/organ Lung (60 minutes): 0.74 % dose/organ
% dose/organ Muscle (60 minutes): 3.30 % dose/organ
% dose/organ Pancreas (60 minutes): 0.13 % dose/organ
% dose/organ Skin (60 minutes): 1.44 % dose/organ
% dose/organ Spleen (60 minutes): 0.12 % dose/organ
% dose/organ Stomach (60 minutes): 3.25 % dose/organ
% dose/organ Tail (60 minutes): 1.35 % dose/organ
% dose/organ Testes (60 minutes): 0.20 % dose/organ
% dose/organ Thyroid (60 minutes): 0.11 % dose/organ
% dose/organ Urogenital (60 minutes): 3.23 % dose/organ
% dose/g Blood (120 minutes): 0.50 % dose/g
% dose/g Body leftover (120 minutes): 0.29 % dose/g
% dose/g Bone (120 minutes): 0.72 % dose/g
% dose/g Brain (120 minutes): 0.23 % dose/g
% dose/g Fat (120 minutes): 0.11 % dose/g
% dose/g Heart (120 minutes): 0.27 % dose/g
% dose/g Intestine (120 minutes): 11.88 % dose/g
% dose/g Kidney (120 minutes): 1.19 % dose/g
% dose/g Liver (120 minutes): 1.35 % dose/g
% dose/g Lung (120 minutes): 2.02 % dose/g
% dose/g Muscle (120 minutes): 0.25 % dose/g
% dose/g Pancreas (120 minutes): 0.23 % dose/g
% dose/g Skin (120 minutes): 0.39 % dose/g
% dose/g Spleen (120 minutes): 0.57 % dose/g
% dose/g Stomach (120 minutes): 0.81 % dose/g
% dose/g Tail (120 minutes): 0.84 % dose/g
% dose/g Testes (120 minutes): 0.31 % dose/g
% dose/g Thyroid (120 minutes): 0.60 % dose/g
% dose/g Urogenital (120 minutes): 30.39 % dose/g
% dose/organ Blood (120 minutes): 0.89 % dose/organ
% dose/organ Body leftover (120 minutes): 4.42 % dose/organ
% dose/organ Bone (120 minutes): 2.50 % dose/organ
% dose/organ Brain (120 minutes): 0.11 % dose/organ
% dose/organ Fat (120 minutes): 0.03 % dose/organ
% dose/organ Heart (120 minutes): 0.04 % dose/organ
% dose/organ Intestine (120 minutes): 32.80 % dose/organ
% dose/organ Kidney (120 minutes): 0.44 % dose/organ
% dose/organ Liver (120 minutes): 1.86 % dose/organ
% dose/organ Lung (120 minutes): 0.37 % dose/organ
% dose/organ Muscle (120 minutes): 2.51 % dose/organ
% dose/organ Pancreas (120 minutes): 0.03 % dose/organ
% dose/organ Skin (120 minutes): 1.46 % dose/organ
% dose/organ Spleen (120 minutes): 0.05 % dose/organ
% dose/organ Stomach (120 minutes): 0.45 % dose/organ
% dose/organ Tail (120 minutes): 0.61 % dose/organ
% dose/organ Testes (120 minutes): 0.05 % dose/organ
% dose/organ Thyroid (120 minutes): 0.06 % dose/organ
% dose/organ Urogenital (120 minutes): 6.52 % dose/organ
clearance from the brain, remaining level (before the 30 min point): less than 10 % of the peak
de-fluorination (radioactivity in bone tissue) (first two hours): do not undergo de-fluorination
uptake by the muscle (over the study period): under 2 % ID/g
